Experimental data: ChEMBL document CHEMBL1201862, “PubChem BioAssay data set” (2004)
Calls of active or inactive are those of the source. For most assays here, no stated cut-off is given here; in the data, actives have a measured EC50 and inactives only a lower limit.

Tests used:
[1] = molecular target: FAD-linked sulfhydryl oxidase ALR (Homo sapiens, UniProt P55789); assay: ALR-catalysed DTT oxidation blockers – biochemical, H2O2 detection, luminescence, cherry-pick, dose response (AID 493248)
Sequence of FAD-linked sulfhydryl oxidase ALR (P55789 whole entry): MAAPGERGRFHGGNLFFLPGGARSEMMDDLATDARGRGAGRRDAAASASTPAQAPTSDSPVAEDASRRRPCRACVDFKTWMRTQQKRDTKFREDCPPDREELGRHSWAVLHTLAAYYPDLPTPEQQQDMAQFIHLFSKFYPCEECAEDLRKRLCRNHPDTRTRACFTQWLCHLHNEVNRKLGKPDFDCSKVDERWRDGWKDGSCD

[2] = Luminescence Cell-Based Dose Confirmation HTS to Identify Activators of 5'UTR Stem-Loop Driven Alpha-Synuclein mRNA Translation in H4 Neuroglioblastoma Cells. [Related pubchem assays: 1829 (Project Summary), 1814 (Primary HTS)]; type: functional
H4 = assay: Luminescence Cell-Based Dose Response HTS to Identify Activators of 5'UTR Stem-Loop Driven Prion Protein mRNA Translation in H4 Neuroglioblastoma Cells. [Related pubchem assays: 1829 (Project Summary), 1814 (Primary HTS)]; type: functional; conditions: Homo sapiens
[3] = Luminescence Cell-Based Dose Response HTS to Identify Activators of Luciferase Translation or Activity in H4 […] Cells. [Related pubchem assays: 1829 (Project Summary), 1814 (Primary HTS)]; type: functional
[4] = molecular target: T1, Heat shock factor protein 1 (Mus musculus, UniProt P38532); assay: enhancement of HSF1-driven luciferase signal – cell-based, NIH3T3, luminescence, dose retest, confirmation (AID 435004); type: functional;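 further: stress induced by proteasome inhibitor MG132 added 30 min after compound; luciferase reporter driven by HSF1 response element in NIH3T3 cells; actives raise luminescence as potentiators of the MG132 stress response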
T1 sequence (P38532 whole entry): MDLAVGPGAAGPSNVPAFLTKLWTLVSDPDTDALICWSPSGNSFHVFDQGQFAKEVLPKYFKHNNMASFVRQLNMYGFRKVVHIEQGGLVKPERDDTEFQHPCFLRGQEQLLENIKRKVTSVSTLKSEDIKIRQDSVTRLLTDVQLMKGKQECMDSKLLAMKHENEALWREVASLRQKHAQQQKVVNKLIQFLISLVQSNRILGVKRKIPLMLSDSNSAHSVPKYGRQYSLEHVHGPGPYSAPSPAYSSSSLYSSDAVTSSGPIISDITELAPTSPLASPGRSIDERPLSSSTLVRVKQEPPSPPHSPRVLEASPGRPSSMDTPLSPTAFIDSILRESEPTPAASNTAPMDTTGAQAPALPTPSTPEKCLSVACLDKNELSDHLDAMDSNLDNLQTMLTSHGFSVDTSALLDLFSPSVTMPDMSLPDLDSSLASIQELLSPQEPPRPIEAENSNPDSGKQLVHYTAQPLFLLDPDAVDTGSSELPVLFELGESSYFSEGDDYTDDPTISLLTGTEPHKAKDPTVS

[5] = NIH3T3 cell viability loss – ATP luminescence, mouse fibroblasts, counter-screen, dose response (AID 2010); type: functional, cell-based;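 further: cells exposed to compound for about 90 hours before reading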
[6] = Trypanosoma cruzi growth suppression in host cells – NIH3T3 host cells, beta-gal luminescence, confirmation (AID 2044); type: functional, cell-based;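 further: intracellular parasites grown in NIH/3T3 mouse fibroblasts as host cells; luminescent beta-galactosidase reporter signal from transgenic T. cruzi replicating inside host cells; inhibitors lower the luminescence signal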
cells = type: functional
[7] = molecular target: T1, Heat shock factor protein 1; assay: decrease of HSF1-responsive luciferase luminescence – cell-based, NIH3T3, dose retest, confirmation (AID 2382); type: functional;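 further: NIH3T3 fibroblasts with HSF1-driven luciferase reporter stressed by proteasome inhibitor MG132; luminescence from HSF1-driven luciferase expression after 8 hours of MG132 stress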
[8] = P. falciparum Dd2 growth inhibitors, dose response, SYBR Green, cherry-picked samples (AID 1159567); type: functional, cell-based
[9] = Luminescence Cell-Based Dose Retest to Confirm Inhibitors of Cancer Stem Cells. [Related pubchem assays (depositor defined):AID2717, AID2721]; type: functional; conditions: Homo sapiens
Streptococcus = assay: GAS UMAA2166 growth inhibition – luminescence, BacTiterGlo, counter-screen for streptokinase expression inhibitor project, dose response (AID 1915); type: functional, organism-based;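 further: potency for reduction of bacterial viability or growth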
[10] = NIH-3T3 fibroblast cytotoxicity, dose response, cytotoxicity control, cell-based, fluorescence, Alamar Blue, secondary assay (AID 2327); type: functional;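 further: NIH-3T3 mouse fibroblasts cultured with fluconazole at 8 µg/mL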
Streptokinase A = molecular target: T2, Streptokinase A (Streptococcus pyogenes serotype M1, UniProt P10520); assay: viability-normalized secreted streptokinase activity reduction – plasminogen activation absorbance, OD405, dose response (AID 1914); type: functional, Streptococcus pyogenes M1 GAS;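 further: secreted streptokinase activity via plasminogen activation per viability signal from cell pellet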
T2 sequence (P10520 whole entry): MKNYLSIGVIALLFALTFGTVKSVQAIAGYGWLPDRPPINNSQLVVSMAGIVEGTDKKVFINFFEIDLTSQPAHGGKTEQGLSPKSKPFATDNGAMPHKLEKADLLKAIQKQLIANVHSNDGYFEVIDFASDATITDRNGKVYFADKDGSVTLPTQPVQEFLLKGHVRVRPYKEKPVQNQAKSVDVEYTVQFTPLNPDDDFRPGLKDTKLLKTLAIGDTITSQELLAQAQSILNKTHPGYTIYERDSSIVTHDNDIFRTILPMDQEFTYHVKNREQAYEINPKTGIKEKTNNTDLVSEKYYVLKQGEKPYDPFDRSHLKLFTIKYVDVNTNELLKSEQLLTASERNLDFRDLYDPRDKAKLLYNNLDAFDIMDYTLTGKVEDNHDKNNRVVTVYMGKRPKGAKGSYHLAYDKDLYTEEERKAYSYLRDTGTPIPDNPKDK

[11] = test system: Streptococcus sp. 'group A'; assay: Streptococcus pyogenes SK(-)GAS viability under kanamycin – luminescence, BacTiterGlo, confirmation, counter-screen for streptokinase expression inhibitor project, dose response (AID 1900); type: functional, organism-based
[12] = fluconazole-exposed Candida albicans growth modulators – fluorescence, retest, confirmation (AID 2467); type: functional, cell-based
[13] = viability of HCT116 lacking mutant beta-catenin – cell-based, human colon tumor, dose response (AID 1045); type: functional;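 further: HCT116 colon tumor cells with beta catenin knocked out; cells exposed to compound for 60 hours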
Large T antigen = Large T antigen (Simian virus 40, UniProt P03070); type: functional, Betapolyomavirus macacae;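 further: Confirmatory-stage PubChem screen for compounds that inhibit SV40 T antigen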
Sequence of Large T antigen (P03070 whole entry): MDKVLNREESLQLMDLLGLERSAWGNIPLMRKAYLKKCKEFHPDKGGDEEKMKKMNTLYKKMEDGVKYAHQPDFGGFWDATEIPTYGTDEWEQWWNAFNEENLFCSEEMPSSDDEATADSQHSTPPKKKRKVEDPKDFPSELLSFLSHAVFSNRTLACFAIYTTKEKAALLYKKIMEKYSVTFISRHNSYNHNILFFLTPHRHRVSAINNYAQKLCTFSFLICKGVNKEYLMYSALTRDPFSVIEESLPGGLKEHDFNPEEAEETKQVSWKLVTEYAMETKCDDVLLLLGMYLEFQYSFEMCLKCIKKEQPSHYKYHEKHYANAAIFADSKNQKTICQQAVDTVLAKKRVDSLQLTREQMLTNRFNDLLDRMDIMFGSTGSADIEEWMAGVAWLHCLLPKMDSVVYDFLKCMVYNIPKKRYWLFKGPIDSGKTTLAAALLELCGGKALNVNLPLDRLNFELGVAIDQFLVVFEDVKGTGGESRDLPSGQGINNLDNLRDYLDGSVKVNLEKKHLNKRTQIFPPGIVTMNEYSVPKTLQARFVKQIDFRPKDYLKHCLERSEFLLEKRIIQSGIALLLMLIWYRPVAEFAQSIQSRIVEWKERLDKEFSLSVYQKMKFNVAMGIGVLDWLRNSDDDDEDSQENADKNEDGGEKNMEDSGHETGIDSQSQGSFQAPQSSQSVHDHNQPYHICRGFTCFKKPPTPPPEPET

With Cc1csc(Nc2ccccc2)[n+]1-c1ccccc1 the AC50 [1] was 1.14 µM (active), the EC50 [2] was > 120 µM (not active) and the EC50 (H4) was 6.74 µM (active). The EC50 [3] was > 30 µM (not active).

In the case of O=C(CCCN1C(=O)c2cccc3cccc(c23)C1=O)Nc1ccon1, the EC50 [4] is reported as > 260 µM (inactive).

With COc1ccc2c(c1)sc(=N)n2C the EC50 [5] was > 60 µM (inconclusive), the EC50 [6] was 0.122 µM (active) and the IC50 (cells) was 30 µM (active).

In the case of CCCc1cc(O)nc(SCC(=O)Nc2ccc(C)cc2)n1, the EC50 [4] is reported as > 260 µM (inactive).

For O=C(Cc1ccc(O)cc1)NC1CCCCCC1, the EC50 [2] was 47.4 µM (active), the EC50 [7] was > 195 µM (not active) and the EC50 (H4) was 16.8 µM (active). For the same compound, the EC50 [3] was 52 µM (active).

With O=C(CCN1CCCCCC1)c1ccccc1 the AC50 [1] was 5.85 µM (active) and the IC50 (cells) was 41 µM (active).

For CC(/C=N/Nc1n[nH]c2c3ccccc3nc-2n1)=C\c1ccco1, the EC50 [2] was 11 µM (active), the EC50 (H4) was 15.5 µM (active) and the EC50 [3] was 17.6 µM (active).

With COc1cccc(-c2nnc(SCc3cccnc3)o2)c1 the EC50 [2] was 43.2 µM (active), the EC50 (H4) was 12.2 µM (active) and the EC50 [3] was 33.1 µM (active).

With O=C1C2CCCCN2C(=O)N1CCCN1CCN(c2ccc(F)cc2)CC1 (configuration not stated) the EC50 [4] was > 260 µM (inactive).

In the case of O=C1c2cccc3cccc(c23)C(=O)N1OS(=O)(=O)c1ccccc1, the EC50 [4] is reported as > 260 µM (inactive).

With O=C(NCCc1c[nH]c2ccccc12)c1ccc(Cl)cc1 the EC50 [2] was 21.9 µM (active), the EC50 (H4) was > 120 µM (not active) and the EC50 [3] was > 120 µM (not active).

In the case of CCCN1CCN(C(=O)c2ccc(Sc3ccc(C)cc3)c(NC(C)=O)c2)CC1, the EC50 [4] is reported as > 260 µM (inactive).

In the case of COc1ccc2c3c([nH]c2c1)[C@H](CO)N(Cc1ccc(F)cc1)CC31CCN(Cc2ccccn2)CC1, the AC50 [8] is reported as 2.95 µM (active).

With O=C(c1ccco1)c1nnn(Cc2ccccc2)c1-c1ccccc1 the EC50 [4] was > 260 µM (inactive) and the AC50 [9] was 3.72 µM (active).

In the case of N#Cc1ccc(-c2ccc3c(c2)[C@H]2[C@H](CCN2C(=O)C2CCCC2)[C@H](CO)N3)cc1, the AC50 [8] is reported as 4.55 µM (active).

In the case of Cc1ccc(C(=O)CC(=O)c2ccccc2C)c(O)c1, the EC50 (Streptococcus) is reported as 9.83 µM (active), the EC50 [10] is reported as > 150 µM (inactive) and the EC50 (Streptokinase A) is reported as > 150 µM (not active). The EC50 [11] was 6.61 µM (active) and the EC50 [12] was > 38 µM (not active).

With CCOc1cc(/C=N/O)ccc1OS(=O)(=O)c1ccc(C)cc1 the EC50 [13] was 312 µM (active).

For CCC(=O)N1CC2(C1)CN(Cc1cc(F)ccc1F)[C@@H](CO)c1[nH]c3cc(OC)ccc3c12, the AC50 [8] was 7.9 µM (active).

For CCOC(=O)CNc1c(-c2ccc(O)cc2)nc2ccc(Cl)cn12, the IC50 (Large T antigen) was 15.9 µM (active).

With C/C=C/c1ccc2c(c1)[C@H]1[C@H](CCN1C(=O)C1CCCC1)[C@@H](CO)N2 the AC50 [8] was 4.97 µM (active).

For Oc1ccc(-c2csc(-c3c[nH]c4ccccc34)n2)c(O)c1, the EC50 [2] was 0.115 µM (active), the EC50 (H4) was 10.2 µM (active) and the EC50 [3] was 4.35 µM (inconclusive).

In the case of O=C(c1ccccc1)c1c[nH]c(C(=O)NNc2ccccc2)c1, the EC50 [5] is reported as 7.46 µM (active), the EC50 [6] is reported as 1.71 µM (active) and the AC50 [9] is reported as 1.09 µM (active). For the same compound, the EC50 [10] was 28.3 µM (active) and the EC50 [12] was > 38 µM (not active).

In the case of CN(C)c1ccc(Nc2cc(Cl)ncn2)cc1, the IC50 (Large T antigen) is reported as 7.46 µM (active).

With CNc1nnc(Sc2ncccc2[N+](=O)[O-])s1 the IC50 (cells) was 7.5 µM (active).

In the case of Cc1ccc(NC(=O)CCS(=O)(=O)c2ccc3c(c2)NC(=O)C(C)S3)nc1 (configuration not stated), the EC50 [4] is reported as > 260 µM (inactive).

For CCN(CC)c1ccc(C(=O)OCC(=O)c2ccco2)cc1, the EC50 [2] was 14.1 µM (active), the EC50 (H4) was 57.4 µM (active) and the EC50 [3] was 94 µM (active).

For O=C(CN1c2ccccc2Sc2ccccc21)N/N=C/c1ccc(Cl)cc1, the EC50 [4] was > 260 µM (inactive).

For C/C=C/c1ccc([C@H]2[C@@H](CO)N(CC3CCCC3)C23CN(C(=O)CC2CC2)C3)cc1, the AC50 [8] was 4.55 µM (active).

For COc1cc(/C=N/NC(=O)CSc2ccccn2)ccc1O, the IC50 (Large T antigen) was 9.69 µM (active).
